Values quoted from earlier work, collected in patent publication US6103723A, “Inhibitors of farnesyl-protein transferase” (Merck & Co., Inc., priority 1998, dated 2000).

Test system: farnesyl-protein transferase
Conditions: via HMG-CoA reductase inhibition

SMILES: CC[C@H](C)C(=O)O[C@H]1C[C@@H](C)C=C2C=C[C@H](C)[C@H](CC[C@@H]3C[C@@H](O)CC(=O)O3)[C@H]21 [lovastatin]
- Indirect inhibition of farnesyl-protein transferase in vivo: Indirect inhibition of farnesyl-protein transferase in vivo has been demonstrated

SMILES: CC[C@H](C)C(=O)O[C@H]1CCC=C2C=C[C@H](C)[C@H](CC[C@@H]3C[C@@H](O)CC(=O)O3)[C@H]21 [compactin]
- Indirect inhibition of farnesyl-protein transferase in vivo: Indirect inhibition of farnesyl-protein transferase in vivo has been demonstrated
